Assay results reported in US7998991B2, “Neurotherapeutic treatment for sexual dysfunction” (Revaax Pharmaceuticals, LLC, priority 2001, dated 2011).

Columns and labels:
monoamine transporters = assay: Binding of CLAV to monoamine transporters
[1] = Pharmacokinetic assessment of CLAV run by IVEDCO; conditions: from plasma 2.5 μg/ml and CSF/plasma ratio 0.25
Method: This treatment regimen of three doses each day for two consecutive days was chosen to acclimate the animals to the treatment procedure (day 1) and to achieve steady-state blood concentration before testing (day 2). A pharmacokinetic assessment of CLAV was run by IVEDCO (Irving Tex.) which estimated an oral dose of 1 mg/kg every three hrs would produce steady-state levels yielding an average plasma concentration of 2.5 μg/ml at the time of testing. Since the CSF/plasma ratio is 0.25 the estimated concentration in the brain would be around 0.3 μM. Given the rate of clearance of CLAV, treatments from day 1 should not have contributed to blood levels of drug on day 2.

[2] = system: cotton-top tamarin (Saguinus oedipus); assay: Scoring of erections, mounts and female solicitations in cotton-top tamarins; assay type: in vivo; conditions: oral 1 mg/kg
monoamine oxidase A = biological target: T1, monoamine oxidase A (Homo sapiens, UniProt P21397); assay: Binding of CLAV to monoamine oxidase A
T1 sequence (P21397 1-527): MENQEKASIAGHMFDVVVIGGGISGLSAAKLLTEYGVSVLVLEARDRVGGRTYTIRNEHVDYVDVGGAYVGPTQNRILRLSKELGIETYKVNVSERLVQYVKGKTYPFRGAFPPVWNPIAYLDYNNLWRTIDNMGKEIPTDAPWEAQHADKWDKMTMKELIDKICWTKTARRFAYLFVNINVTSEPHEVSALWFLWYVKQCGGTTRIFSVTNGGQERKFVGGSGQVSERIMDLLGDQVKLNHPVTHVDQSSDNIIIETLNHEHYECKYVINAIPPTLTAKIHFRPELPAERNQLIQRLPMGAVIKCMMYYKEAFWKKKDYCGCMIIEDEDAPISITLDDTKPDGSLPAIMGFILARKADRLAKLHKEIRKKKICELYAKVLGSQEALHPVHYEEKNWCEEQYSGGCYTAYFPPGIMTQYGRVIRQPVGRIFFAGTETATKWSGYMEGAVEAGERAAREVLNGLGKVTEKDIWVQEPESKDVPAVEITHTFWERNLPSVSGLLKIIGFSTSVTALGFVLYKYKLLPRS

[3] = system: cotton-top tamarin (Saguinus oedipus); assay: Novel object test for anxiolytic activity in cotton-top tamarins; assay type: in vivo; conditions: oral 1 mg/kg, three doses a day for two days
Method: Eight male/female pairs of tamarins with long standing pair bonds were tested following oral treatments of CLAV and vehicle (VEH) control. There were no offspring since males were vasectomized. Both members of a pair received the same treatments at the same times. Each animal served as its own control being tested both with CLAV or VEH one week apart. The treatment schedule was counter-balanced. CLAV was dissolved in water and dispensed onto a small cookie in a volume of 100 μl. A single CLAV cookie was given to each member of a pair at an approximate dose of 1 mg/kg body weight. Animals were given three CLAV cookies each day for two consecutive days. The 1st cookie was given at 8:00 AM prior to the morning feeding, the 2nd at 11:00 AM prior to the noon feeding and the 3rd at 2:00 PM prior to the late afternoon snack. All animals were scored for anti-anxiety activity 60 min after the 3rd treatment on the second day.
Two observers blind to the treatment independently scored behavioral activity. To elicit anxious/stressful behavior a novel object was placed into the home cage. A different novel object was used for each test session and the object presentation was counter-balanced. Following the presentation of the novel object animals were scored for a duration of 15 min for: 1) latency to approach and latency to touch the object, 2) time spent in contact or proximity with the object, 3) face and head movement (frowns, head shakes and head cocks that reflect tension), 4) scratching (a validated measure of anxiety in macaques), 5) piloerection (autonomic stress response), and 6) visual scanning (nervous vigilance).

[4] = system: well known signaling receptors or transporters; assay: Binding of CLAV to well known signaling receptors or transporters
nucleus accumbens = assay: Microdialysis of extracellular neurotransmitter levels after IP CLAV; assay type: in vivo, Sprague Dawley rats
Method: To test this hypothesis, extracellular neurotransmitter levels in the area of the nucleus accumbens were assessed with microdialysis following CLAV treatment. The accumbens is part of the limbic forebrain best now for its association with the pathophysiology of schizophrenia and drug addiction but also thought to be involved in sensitization to early life trauma leading to the anxiety disorder PTSD or post traumatic stress disorder ([…] and Bremner 1999). Ten male, Sprague Dawley rats were anesthetized with sodium pentobarbital (50 mg/kg) and implanted with a unilateral microdialysis guide cannula aimed at the nucleus accumbens. Two days after recovery from surgery a microdialysis probe (2 mm) was lowered to the area and connected to an infusion pump through Tygon tubing. The dialysate was artificial CSF at pH 7.4 delivered at a flow rate of 2 μl/min. The first 120 min of dialysate will be discarded. Thereafter, samples were collected at 30 min intervals prior to and following IP CLAV treatment (10 μg/kg). Samples were collected into microfuge tubes containing 5 μl of 0.16 N perchloric acid to stabilize catecholamines. At the end of the study, animals were sacrificed and the brains prepared for histology to verify the site of the microdialysis probe.

[5] = system: prefrontal cortex and nucleus accumbens; conditions: Cartmell et al., 2000b; Hertel et al. 1997; cited from earlier work

O=C(O)[C@H]1/C(=C/CO)O[C@@H]2CC(=O)N21 [CLAV, clavulanic acid]
binding to monoamine transporters (monoamine transporters): Neither the monoamine transporters nor the degradative enzyme monoamine oxidase A show binding
estimated concentration in the brain [1]: around 0.3 μM
females showing solicitation behaviors ([2]; eight females, three doses a day for two days): Two of the eight
males showing at least one erection in 15 min ([2]; eight males, three doses a day for two days): All eight
mean erections in 15 min ([2]; males, three doses a day for two days): 2.25 erections in 15 min
rate of erections ([2]; males, p<0.02 vs VEH): 9.0 erections per hour
mounting behavior, CLAV vs VEH ([2]; three doses a day for two days): no significant difference
binding to monoamine oxidase A (monoamine oxidase A): Neither the monoamine transporters nor the degradative enzyme monoamine oxidase A show binding
latency to approach the novel object, CLAV vs VEH [3]: no significant difference
latency to touch the novel object, CLAV vs VEH [3]: no significant difference
time spent in proximity to the object, CLAV vs VEH [3]: Neither was there any difference
combined measures of anxious/nervous behaviors (3, 4, 5 & 6) ([3]; scored 15 min, 60 min after 3rd treatment on day 2, p<0.05 vs VEH): 12.7+4.8
binding to well known signaling receptors or transporters [4]: does not appear to bind
DOPAC levels (nucleus accumbens; IP 10 μg/kg, AC-1 to AC-5): only rose in two cases
changes in dopamine and serotonin neurotransmission, probe outside the nucleus accumbens (nucleus accumbens; IP 10 μg/kg, lateral ventricle, bed nucleus of stria terminalis, head of the caudate, ventrolateral thalamus): little if any changes
dopamine metabolite 3,4-dihydroxyphenylacetic acid (DOPAC) over time (nucleus accumbens; animal AC-1, IP 10 μg/kg): robust increase
dopamine metabolite homovanillic acid (HVA) over time (nucleus accumbens; animal AC-1, IP 10 μg/kg): robust increase
dopamine over time (nucleus accumbens; animal AC-1, IP 10 μg/kg): modest decrease
extracellular levels of serotonin over time (nucleus accumbens; animal AC-1, IP 10 μg/kg): increase
serotonin metabolite 5-hydroxyindoleacetic acid (HIAA) over time (nucleus accumbens; animal AC-1, IP 10 μg/kg): robust increase

Cc1nc2n(c(=O)c1CCN1CCC(c3noc4cc(F)ccc34)CC1)CCCC2 [risperidone]
dopamine and serotonin neurotransmission in the prefrontal cortex and nucleus accumbens [5]: increase
